# Source: article PMC8102414 (Heliyon, 2021)
# Assays:
# [1] = test system: Streptococcus pyogenes ATCC, 19615; assay: Antimicrobial MIC, 2-fold serial dilution; conditions: for MIC (μg/mL) SP: Gram-positive, Streptococcus pyogenes (ATCC, 19615), Inactive at >128 μg/mL; for MIC: Streptococcus pyogenes, read-out: MIC (μg/mL) SP
# [2] = test system: Salmonella typhimurium DMST 562; assay: Antimicrobial MIC, 2-fold serial dilution; conditions: for MIC (μg/mL) STR: Gram-negative, Salmonella typhimurium (DMST 562), Inactive at >128 μg/mL; for MIC: Salmonella enterica, TYPHIMURIUM, read-out: MIC (μg/mL) STR
# [3] = test system: Escherichia coli TISTR 780; assay: Antimicrobial MIC, 2-fold serial dilution; conditions: for MIC: Escherichia coli, TISTR780, read-out: MIC (μg/mL) EC; for MIC (μg/mL) EC: Gram-negative, Escherichia coli (TISTR 780), Inactive at >128 μg/mL
# [4] = test system: Micrococcus luteus DMST 15503; assay: Antimicrobial MIC, 2-fold serial dilution; conditions: for MIC (μg/mL) MT: Gram-positive, Micrococcus luteus (DMST 15503), Inactive at >128 μg/mL; for MIC: Micrococcus luteus, DMST15503, read-out: MIC (μg/mL) MT
# [5] = test system: Enterococcus faecalis ATCC 29212; assay: Antimicrobial MIC, 2-fold serial dilution; conditions: for MIC: Enterococcus faecalis, ATCC29212, read-out: MIC (μg/mL) EF; for MIC (μg/mL) EF: Gram-positive, Enterococcus faecalis (ATCC 29212), Inactive at >128 μg/mL
# [6] = test system: Candida albicans ATCC 10231; assay: Antimicrobial MIC, 2-fold serial dilution; conditions: for MIC: Candida albicans, ATCC10231, read-out: MIC (μg/mL) CA; for MIC (μg/mL) CA: Fungi, Candida albicans (ATCC 10231), Inactive at >128 μg/mL
# [7] = test system: Pseudomonas aeruginosa ATCC 10145; assay: Antimicrobial MIC, 2-fold serial dilution; conditions: for MIC: Pseudomonas aeruginosa, ATCC10145, read-out: MIC (μg/mL) PA
# [8] = test system: advanced glycation end products (AGEs); assay: Glycation inhibition assay; type: biochemical; conditions: Inactive at >100 μM
# 3T3-L1 adipocyte cells = assay: Glucose consumption assay; type: cell-based; conditions: induction of glucose consumption, 3T3-L1 adipocyte cells; Inactive at >100 μM
# [9] = test system: Shigella flexneri DMST 4423; assay: Antimicrobial MIC, 2-fold serial dilution; conditions: for MIC: Shigella flexneri, DMST4423, read-out: MIC (μg/mL) SF; for MIC (μg/mL) SF: Gram-negative, Shigella flexneri (DMST 4423), Inactive at >128 μg/mL
# RAW 264.7 cells = assay: Nitric oxide production inhibition assay; type: cell-based; conditions: for NO Inhibition (IC50, μM): LPS-stimulated NO production in RAW 264.7 cells, Inactive at >100 μM
# [10] = test system: Staphylococcus aureus ATCC 25923; assay: Antimicrobial MIC, 2-fold serial dilution; conditions: for MIC (μg/mL) SA: Gram-positive, Staphylococcus aureus (ATCC 25923), Inactive at >128 μg/mL; for MIC: Staphylococcus aureus, ATCC25923, read-out: MIC (μg/mL) SA
# [11] = test system: Salmonella typhi DMST 22842; assay: microbe, parasite or virus in culture; type: cell-based; conditions: for MIC: Salmonella enterica, TYPHI, read-out: MIC (μg/mL) ST; for MIC (μg/mL) ST: Gram-negative, Salmonella typhi (DMST 22842), Inactive at >128 μg/mL
# [12] = test system: methicillin resistant Staphylococcus aureus NPRC 001R; assay: Antimicrobial MIC, 2-fold serial dilution; conditions: for MIC (μg/mL) MRSA: Gram-positive, Methicillin Resistant Staphylococcus aureus (NPRC 001R), Inactive at >128 μg/mL
SMILES,MIC (μg/mL) SP [1],MIC (μg/mL) STR [2],MIC [3] [µg/mL],MIC (μg/mL) MT [4],MIC [5] [µg/mL],MIC [7] [µg/mL],"Glycation inhibition (IC50, μM) [8]","Glucose consumption (IC50, μM) (3T3-L1 adipocyte cells)","NO Inhibition (IC50, μM) (RAW 264.7 cells)",MIC [11] [µg/mL],MIC (μg/mL) EC [3],MIC (μg/mL) SF [9],MIC [10] [µg/mL],MIC (μg/mL) EF [5],MIC (μg/mL) MRSA [12],MIC (μg/mL) CA [6],MIC (μg/mL) ST [11],other results
"O=c1oc2cc(O)ccc2c2oc3cc(O)ccc3c12 [Compound 6, coumestrol]",Inactive,Inactive,128,Inactive,128,128,Inactive,Inactive,Inactive,128,,,,,,,,MIC [6]: 128 µg/mL; MIC [9]: 128 µg/mL; MIC (μg/mL) SA [10]: Inactive
"CC(C)=CCc1c(O)ccc2c1O[C@H]1c3ccc(O)cc3OC[C@@H]21 [Compound 11, phaseollidin]",,Inactive,,,128,128,Inactive,Inactive,Inactive,128,Inactive,Inactive,,,,,,MIC [4]: 128 µg/mL; MIC [6]: 128 µg/mL
"O=c1c(O)c(-c2ccc(O)c(O)c2)oc2cc(O)cc(O)c12 [Quercetin, quercetin, reference compound]",,,,,,,,,,,,,,,,,,IC50 ([8]; read-out: Glycation inhibition (IC50)): 59.1 ± 0.78 µM
"CN[C@H](CC(C)C)C(=O)N[C@H]1C(=O)N[C@@H](CC(N)=O)C(=O)N[C@H]2C(=O)N[C@H]3C(=O)N[C@H](C(=O)N[C@H](C(=O)O)c4cc(O)cc(O)c4-c4cc3ccc4O)[C@H](O)c3ccc(c(Cl)c3)Oc3cc2cc(c3O[C@@H]2O[C@H](CO)[C@@H](O)[C@H](O)[C@H]2O[C@H]2C[C@](C)(N)[C@H](O)[C@H](C)O2)Oc2ccc(cc2Cl)[C@H]1O [Vancomycin, vancomycin, reference compound]",,,,,2,,,,,,,,0.5,,,,,"MIC [1]: 2 µg/mL; MIC [4]: 2 µg/mL; MIC ([12]; Staphylococcus aureus, MRSA, read-out: MIC (μg/mL) MRSA): 1 µg/mL; MIC [6]: 4 µg/mL"
"COc1cc(O)cc2oc(-c3ccccc3)cc(=O)c12 [Compound 18, 5-methoxy-7-hydroxyflavone]",Inactive,Inactive,128,Inactive,,128,Inactive,Inactive,Inactive,128,,Inactive,128,Inactive,Inactive,Inactive,,
"O=c1c(O)c(-c2ccc(O)cc2)oc2ccc(O)cc12 [Compound 16, 3,6,4′-trihydroxyflavone]",Inactive,Inactive,128,Inactive,,128,Inactive,Inactive,,,,Inactive,128,Inactive,Inactive,Inactive,Inactive,"IC50 (RAW 264.7 cells; Mus musculus, RAW264.7, read-out: NO Inhibition (IC50, μM)): 96.2 ± 1.61 µM"
"CC(C)=CCc1cc(-c2coc3c(CC=C(C)C)c(O)ccc3c2=O)ccc1O [Compound 20, erysubin F]",Inactive,Inactive,,Inactive,128,,Inactive,Inactive,Inactive,,Inactive,Inactive,,,Inactive,,Inactive,"MIC (μg/mL) PA ([7]; Gram-negative, Pseudomonas aeruginosa (ATCC 10145), Inactive at >128 μg/mL): Inactive"
"O=c1c(O)c(-c2ccccc2)oc2ccc(O)cc12 [Compound 17, 3,6-dihydroxyflavone]",Inactive,Inactive,,Inactive,,128,Inactive,Inactive,Inactive,,Inactive,Inactive,128,Inactive,Inactive,Inactive,Inactive,
"COc1ccc2c3c(oc2c1CC=C(C)C)-c1ccc(O)cc1OC3 [Compound 3, eryvarin D]",Inactive,,128,Inactive,,128,Inactive,Inactive,Inactive,,,Inactive,,Inactive,Inactive,Inactive,Inactive,MIC [2]: 128 µg/mL; MIC (μg/mL) SA [10]: Inactive
"O=c1c(-c2ccc(O)cc2)coc2cc(O)cc(O)c12 [Compound 21, genistein]",Inactive,Inactive,,Inactive,,128,Inactive,Inactive,Inactive,,Inactive,Inactive,,Inactive,Inactive,Inactive,Inactive,MIC (μg/mL) SA [10]: Inactive
"CC(C)=CCc1cc([C@@H]2CC(=O)c3c(O)cc(O)cc3O2)cc(CC=C(C)C)c1O [Compound 25, abyssinone V]",,,,,,128,Inactive,Inactive,Inactive,128,Inactive,,128,Inactive,Inactive,Inactive,,MIC [1]: 128 µg/mL; MIC [2]: 128 µg/mL; MIC [4]: 128 µg/mL; MIC [9]: 128 µg/mL
